According to the NIST ThermoML archive (doi:10.1021/je8007759):

Assay: xn = mol fraction of the nth substance listed

CC1CCC(=O)O1 (stereo not given) [γ-valerolactone] + O=C=O
mass density [kg/m3], Fluid (supercritical or subcritical phases), Pycnometric method
Conditions	322.9 K	327.9 K
9870 kPa, x1 = 0.01	521	–
9890 kPa, x1 = 0.01	526	–
9920 kPa, x1 = 0.01	529	–
9940 kPa, x1 = 0.01	532	–
9960 kPa, x1 = 0.01	535	–
9980 kPa, x1 = 0.01	539	–
10000 kPa, x1 = 0.01	540	–
10020 kPa, x1 = 0.01	542	–
10050 kPa, x1 = 0.01	547	–
10080 kPa, x1 = 0.01	550	–
10100 kPa, x1 = 0.01	554	–
10110 kPa, x1 = 0.01	556	–
10140 kPa, x1 = 0.01	559	–
10170 kPa, x1 = 0.01	563	–
10200 kPa, x1 = 0.01	566	–
10230 kPa, x1 = 0.01	576	–
10230 kPa, x1 = 0.025	673	–
10240 kPa, x1 = 0.025	675	–
10260 kPa, x1 = 0.01	574	–
10270 kPa, x1 = 0.025	679	–
10290 kPa, x1 = 0.01	578	–
10310 kPa, x1 = 0.025	683	–
10330 kPa, x1 = 0.01	582	–
10370 kPa, x1 = 0.01	586	–
10370 kPa, x1 = 0.025	687	–
10380 kPa, x1 = 0.15	939	–
10400 kPa, x1 = 0.01	590	–
10430 kPa, x1 = 0.01	594	–
10440 kPa, x1 = 0.025	692	–
10470 kPa, x1 = 0.01	598	–
10470 kPa, x1 = 0.025	696	–
10510 kPa, x1 = 0.05	766	–
10520 kPa, x1 = 0.01	602	–
10540 kPa, x1 = 0.025	701	–
10550 kPa, x1 = 0.05	769	–
10570 kPa, x1 = 0.01	606	497
10600 kPa, x1 = 0.01	–	500
10600 kPa, x1 = 0.05	771	–
10610 kPa, x1 = 0.025	705	–
10620 kPa, x1 = 0.01	610	–
10630 kPa, x1 = 0.01	–	502
10630 kPa, x1 = 0.1	881	–
10660 kPa, x1 = 0.01	–	505
10670 kPa, x1 = 0.025	710	–
10680 kPa, x1 = 0.01	615	–
10690 kPa, x1 = 0.01	–	509
10700 kPa, x1 = 0.1	882	–
10720 kPa, x1 = 0.01	619	511
10720 kPa, x1 = 0.05	776	–
10740 kPa, x1 = 0.01	–	514
10750 kPa, x1 = 0.025	714	–
10770 kPa, x1 = 0.01	–	517
10770 kPa, x1 = 0.1	884	–
10780 kPa, x1 = 0.01	624	–
10820 kPa, x1 = 0.01	–	522
10820 kPa, x1 = 0.025	718	–
10840 kPa, x1 = 0.01	629	–
10840 kPa, x1 = 0.1	885	–
10860 kPa, x1 = 0.05	781	–
10880 kPa, x1 = 0.01	–	529
10880 kPa, x1 = 0.15	943	–
10900 kPa, x1 = 0.01	633	–
10910 kPa, x1 = 0.025	723	–
10930 kPa, x1 = 0.01	–	535
10980 kPa, x1 = 0.01	638	–
11000 kPa, x1 = 0.1	888	–
11010 kPa, x1 = 0.01	–	542
11010 kPa, x1 = 0.05	787	–
11020 kPa, x1 = 0.025	727	–
11040 kPa, x1 = 0.01	641	–
11080 kPa, x1 = 0.01	–	549
11090 kPa, x1 = 0.025	732	–
11130 kPa, x1 = 0.01	–	554
11160 kPa, x1 = 0.01	650	–
11180 kPa, x1 = 0.05	792	–
11190 kPa, x1 = 0.01	–	559
11190 kPa, x1 = 0.025	737	–
11200 kPa, x1 = 0.15	945	–
11230 kPa, x1 = 0.1	892	–
11280 kPa, x1 = 0.01	–	567
11290 kPa, x1 = 0.01	657	–
11300 kPa, x1 = 0.025	–	661
11310 kPa, x1 = 0.025	742	–
11360 kPa, x1 = 0.025	–	665
11380 kPa, x1 = 0.05	797	–
11420 kPa, x1 = 0.01	–	578
11420 kPa, x1 = 0.025	–	669
11450 kPa, x1 = 0.025	747	–
11480 kPa, x1 = 0.025	–	673
11510 kPa, x1 = 0.01	667	586
11520 kPa, x1 = 0.025	–	677
11540 kPa, x1 = 0.025	751	–
11540 kPa, x1 = 0.1	897	–
11580 kPa, x1 = 0.05	803	–
11590 kPa, x1 = 0.025	–	682
11600 kPa, x1 = 0.15	–	928
11630 kPa, x1 = 0.01	–	594
11660 kPa, x1 = 0.025	–	686
11700 kPa, x1 = 0.025	757	–
11720 kPa, x1 = 0.05	–	759
11730 kPa, x1 = 0.025	–	690
11740 kPa, x1 = 0.1	–	864
11760 kPa, x1 = 0.15	950	–
11770 kPa, x1 = 0.1	–	865
11790 kPa, x1 = 0.01	–	606
11800 kPa, x1 = 0.01	681	–
11800 kPa, x1 = 0.025	–	694
11800 kPa, x1 = 0.05	808	–
11820 kPa, x1 = 0.025	763	–
11840 kPa, x1 = 0.05	–	763
11880 kPa, x1 = 0.1	–	867
11890 kPa, x1 = 0.025	–	698
11920 kPa, x1 = 0.01	–	615
11920 kPa, x1 = 0.15	–	931
11970 kPa, x1 = 0.025	768	–
11970 kPa, x1 = 0.05	–	768
11980 kPa, x1 = 0.01	–	621
11990 kPa, x1 = 0.025	–	703
12010 kPa, x1 = 0.1	903	–
12030 kPa, x1 = 0.01	691	–
12050 kPa, x1 = 0.1	–	871
12070 kPa, x1 = 0.01	–	628
12080 kPa, x1 = 0.05	814	–
12110 kPa, x1 = 0.025	–	709
12130 kPa, x1 = 0.025	773	–
12130 kPa, x1 = 0.05	–	774
12140 kPa, x1 = 0.15	952	–
12250 kPa, x1 = 0.15	–	934
12280 kPa, x1 = 0.025	–	716
12300 kPa, x1 = 0.01	–	639
12310 kPa, x1 = 0.05	–	779
12320 kPa, x1 = 0.05	820	–
12330 kPa, x1 = 0.025	778	–
12520 kPa, x1 = 0.025	784	–
12540 kPa, x1 = 0.1	910	–
12620 kPa, x1 = 0.05	826	–
12660 kPa, x1 = 0.15	956	–
12710 kPa, x1 = 0.025	790	–
12920 kPa, x1 = 0.025	795	–
12960 kPa, x1 = 0.05	832	–
13080 kPa, x1 = 0.1	915	–
13150 kPa, x1 = 0.025	801	–
13170 kPa, x1 = 0.15	959	–
13320 kPa, x1 = 0.05	838	–
13390 kPa, x1 = 0.025	806	–
13570 kPa, x1 = 0.05	843	–
13640 kPa, x1 = 0.025	812	–
13720 kPa, x1 = 0.15	962	–
13790 kPa, x1 = 0.1	923	–
14000 kPa, x1 = 0.05	850	–
14100 kPa, x1 = 0.025	821	–
14230 kPa, x1 = 0.15	965	–
14430 kPa, x1 = 0.05	856	–
14490 kPa, x1 = 0.1	929	–
14840 kPa, x1 = 0.05	862	–
14860 kPa, x1 = 0.15	969	–
14880 kPa, x1 = 0.1	932	–
15440 kPa, x1 = 0.15	972	–
15620 kPa, x1 = 0.05	872	–
15960 kPa, x1 = 0.15	975	–
16660 kPa, x1 = 0.15	979	–
17270 kPa, x1 = 0.15	982	–

mass density [kg/m3], 322.9 K, high pressure variable cell
Conditions	x1 = 0.01	x1 = 0.025	x1 = 0.05	x1 = 0.1	x1 = 0.15
Gas	514	672	763	–	–
Liquid	–	–	–	877	936
